# Measured values from publication PMC11035696, “Prospective de novo drug design with deep interactome learning” (Nature Communications, 2024).
# Legend:
# [1] = Microsomal clearance, mouse; format: in vitro ADME; settings: mouse microsomes, single point measurement
# Protocol: (§1) Compounds 1–3 were characterized in a hybrid reporter gene assay for their agoniztic effect on human nuclear receptors PPARα/γ/δ, RXRα, FXRα, RARα in HEK293T cells. Compound 1 was tested in an isothermal titration calorimetry (ITC) assay to measure direct binding affinity to the ligand-binding domain of PPARγ. ADME properties were measured in standardized assays at Roche.
# (§2) SI11Absorption Distribution Metabolism and Excretion and Toxicity Data
# (§3) To assess the drug-like characteristics of the newly designed PPAR modulators, a series of tests were conducted covering various aspects of absorption, distribution, metabolism, and excretion (ADME) properties. Specifically, these assessments included the parallel artificial membrane permeability assay (PAMPA) with permeation co- […]
# (§4) efficients ([…]), LogD measurements, microsomal clearance, hepatocyte clearance, P-glycoprotein (Pgp) efflux ratio and binding and the unbound free fraction. […] For seven selected CYP proteins (i.e., Cyp3A4, Cyp1A2, Cyp2B6, Cyp2C9, Cyp2D6, Cyp2C19, and Cyp2C8) the half maximal inhibitory con-centration (IC50) was determined. […]
# (§5) Compounds 1 and 2 were validated for cytotoxicity on HEK293T cells. Figure S16 depicts the measured cyto-toxicity at two time points (i.e., 16h and 24h), 10 different concentrations (i.e., 0.05 - 20 µM), and 5 different
# [2] = Parallel artificial membrane permeability assay (PAMPA); format: in vitro ADME; settings: read-out: […] permeation coefficient
# Protocol: as §1, §2, §3
# (§6) efficients ([…]), LogD measurements, microsomal clearance, hepatocyte clearance, P-glycoprotein (Pgp) efflux ratio and binding and the unbound free fraction. […]
# (§7) Table S14: Absorption distribution metabolism and excretion (ADME) properties of compounds 1 and 2. The […]
# (§8) values for […], LogD, protein binding, P-glycoprotein (Pgp) efflux ratio and permeability, and hepato-cyte clearance are presented as the mean and standard deviation, with a sample size of N = 3, i.e., 3 technical replicates each. The values for microsomal clearance and CYP-inhibition represent single point measurements. […]
# [3] = Lipophilicity (LogD pH 7.4); format: physicochemical
# Protocol: as §1, §2, §3, §6, §7, §8
# [4] = Microsomal clearance, human; format: in vitro ADME; settings: human microsomes, single point measurement
# Protocol: as §1, §2, §3, §4, §5
# [5] = Microsomal clearance, rat; format: in vitro ADME; settings: rat microsomes, single point measurement
# Protocol: as §1, §2, §3, §4, §5
smiles,measurement,setting,value
CO[C@@H](Cc1ccc(OCCc2nc(-c3ccccc3)oc2C)c2ccsc12)C(=O)O [aleglitazar],"Microsomal clearance, mouse",[1],≥ 10 µL·min−1·mg−1 protein
same,Papp,[2],6 ×10⁻⁶ cm/s
same,logD,[3],1.4
same,"Microsomal clearance, human",[4],≥ 10 µL·min−1·mg−1 protein
same,"Microsomal clearance, rat",[5],≥ 10 µL·min−1·mg−1 protein
